# From US10890591B2, “Methods and dose packs for monitoring medication adherence” (Synapse Biosciences, LLC, priority 2016, dated 2021)
# How the values were obtained:
# [1] = Multiple Marker Experiment 1: saliva samples, marker concentration by LC-MS/MS; details: human, in vivo;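 also: mean across four subjects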
# Source text: (§1) All other markers were obtained from commercial sources. Urine and saliva were collected prior to each day's dosing of marker confirming the presence or absence of markers before the experiment started. […] The presence of all 7 markers at day 8 would confirm that all markers were ingested in the previous 7 day one week period.
# (§2) Healthy volunteers with no recent exposure to the markers who were not currently taking prescribed medications, OTC medications or vitamins and supplements were chosen. Exposure to the markers more than one month before starting the experiment was allowed and no dietary restrictions were required. Subjects were given a 7 day blister pack with markers sequenced in the order above. Subjects verbally confirmed they understood the urine and saliva collection procedures. Instructions printed on the marker blister pack instructed subjects to collect urine and saliva each morning before they took the daily dose of marker. They were also instructed to take the daily dose of marker close to the same time each day.
# [2] = Multiple Marker Experiment 1: urine samples, adherent with all markers, marker concentration by LC-MS/MS; details: for Subject A, Urine Results / Subject B, Urine Results / Subject C, Urine Results / Subject D, Urine Results / Average of Urine Samples / concentration at 8 day: each marker dosed once
# Source text: as §1, §2
# [3] = Multiple Marker Experiment 2: urine samples, simulated non-adherence (one marker dose skipped per subject), LC-MS/MS; details: for Subject B, Urine Results / Subject C, Urine Results: collected before that day's dose; for Subject B, Urine Results / Subject C, Urine Results / concentration at 8 day: other markers dosed once; for concentration at 8 day: Urine Results, Day 8 sample
# [4] = Day 1 sample, collected before that day's dose, Experiment #1, adherent with all markers
# [5] = Day 2 sample, collected before that day's dose, Experiment #1, adherent with all markers
# [6] = Day 3 sample, collected before that day's dose, Experiment #1, adherent with all markers
# [7] = Day 4 sample, collected before that day's dose, Experiment #1, adherent with all markers
# [8] = Day 5 sample, collected before that day's dose, Experiment #1, adherent with all markers
# [9] = Day 6 sample, collected before that day's dose, Experiment #1, adherent with all markers
# [10] = Day 7 sample, collected before that day's dose, Experiment #1, adherent with all markers
# [11] = Day 8 sample, Experiment #1, adherent with all markers
smiles,measurement,setting,value
CN(C)C(=O)C(CCN1CCC(O)(c2ccc(Cl)cc2)CC1)(c1ccccc1)c1ccccc1 [Loperamide],concentration at 1 day,[1],0 µg/mL
same,concentration at 2 day,[1],0 µg/mL
same,concentration at 3 day,[1],0.431 ng/mL
same,concentration at 4 day,[1],0.18 ng/mL
same,concentration at 5 day,[1],0.257 ng/mL
same,concentration at 6 day,[1],0.112 ng/mL
same,concentration at 7 day,[1],0.0922 ng/mL
same,concentration at 8 day,[1],0.0265 ng/mL
same,"Subject A, Urine Results",[2]; [4],0 ng/mL
same,"Subject B, Urine Results",[2]; [4],0 ng/mL
same,"Subject C, Urine Results",[2]; [4],0 ng/m
same,"Subject D, Urine Results",[2]; [4],0 ng/m
same,"Subject A, Urine Results",[2]; [5],0 ng/mL
same,"Subject B, Urine Results",[2]; [5],0 ng/mL
same,"Subject C, Urine Results",[2]; [5],0 ng/m
same,"Subject D, Urine Results",[2]; [5],0 ng/m
same,"Subject A, Urine Results",[2]; [6],28.4 ng/mL
same,"Subject B, Urine Results",[2]; [6],206 ng/mL
same,"Subject C, Urine Results",[2]; [6],75.2 ng/m
same,"Subject D, Urine Results",[2]; [6],110 ng/m
same,Average of Urine Samples,"[2]; Day 3 sample, collected before that day's dose, average of subjects A, B, C, D, Experiment 1",104.9 ng/mL
same,"Subject A, Urine Results",[2]; [7],98.4 ng/mL
same,"Subject B, Urine Results",[2]; [7],26.8 ng/mL
same,"Subject C, Urine Results",[2]; [7],23.7 ng/m
same,"Subject D, Urine Results",[2]; [7],100 ng/m
same,Average of Urine Samples,"[2]; Day 4 sample, collected before that day's dose, average of subjects A, B, C, D, Experiment 1",62.225 ng/mL
same,"Subject A, Urine Results",[2]; [8],31.6 ng/mL
same,"Subject B, Urine Results",[2]; [8],6.94 ng/mL
same,"Subject C, Urine Results",[2]; [8],7.11 ng/m
same,"Subject D, Urine Results",[2]; [8],18.6 ng/m
same,Average of Urine Samples,"[2]; Day 5 sample, collected before that day's dose, average of subjects A, B, C, D, Experiment 1",16.0625 ng/mL
same,"Subject A, Urine Results",[2]; [9],24.1 ng/mL
same,"Subject B, Urine Results",[2]; [9],5.5 ng/mL
same,"Subject C, Urine Results",[2]; [9],5.02 ng/m
same,"Subject D, Urine Results",[2]; [9],6.37 ng/m
same,Average of Urine Samples,"[2]; Day 6 sample, collected before that day's dose, average of subjects A, B, C, D, Experiment 1",10.2475 ng/mL
same,"Subject A, Urine Results",[2]; [10],0.035 ng/mL
same,"Subject B, Urine Results",[2]; [10],2.33 ng/mL
same,"Subject C, Urine Results",[2]; [10],2.41 ng/m
same,"Subject D, Urine Results",[2]; [10],5.8 ng/m
same,Average of Urine Samples,"[2]; Day 7 sample, collected before that day's dose, average of subjects A, B, C, D, Experiment 1",2.644 ng/mL
same,"Subject C, Urine Results",[2]; [11],1.89 ng/m
same,"Subject D, Urine Results",[2]; [11],2.71 ng/m
same,course of urine levels relative to dosing,"[2]; Experiment 1, days 1-8","zero before dosing, peaked the day after dosing and slowly decreased over time"
same,concentration at 1 day,"[2]; human, in vivo",0 µg/mL
same,concentration at 2 day,"[2]; human, in vivo",0 µg/mL
same,concentration at 8 day,"[2]; human, in vivo, Average of Urine Samples, Day 8 sample, average of subjects A, B, C, D, Experiment 1",1.18 ng/mL
same,concentration at 8 day,"[2]; human, in vivo, Subject A, Urine Results, Day 8 sample, Experiment #1, adherent with all markers",0.022 ng/mL
same,concentration at 8 day,"[2]; human, in vivo, Subject B, Urine Results, Day 8 sample, Experiment #1, adherent with all markers",0.107 ng/mL
same,"Subject B, Urine Results","[3]; Day 1 sample, Experiment #2, subject B skipped diphenhydramine on day 5",0 ng/mL
same,"Subject C, Urine Results","[3]; Day 1 sample, Experiment #2, subject C skipped Loperamide on day 2",0 ng/mL
same,"Subject B, Urine Results","[3]; Day 2 sample, Experiment #2, subject B skipped diphenhydramine on day 5",0 ng/mL
same,"Subject C, Urine Results","[3]; Day 2 sample, Experiment #2, subject C skipped Loperamide on day 2",0 ng/mL
same,"Subject B, Urine Results","[3]; Day 3 sample, Experiment #2, subject B skipped diphenhydramine on day 5",209 ng/mL
same,"Subject C, Urine Results","[3]; Day 3 sample, Experiment #2, subject C skipped Loperamide on day 2",0 ng/mL
same,"Subject B, Urine Results","[3]; Day 4 sample, Experiment #2, subject B skipped diphenhydramine on day 5",101 ng/mL
same,"Subject C, Urine Results","[3]; Day 4 sample, Experiment #2, subject C skipped Loperamide on day 2",0 ng/mL
same,"Subject B, Urine Results","[3]; Day 5 sample, Experiment #2, subject B skipped diphenhydramine on day 5",32.3 ng/mL
same,"Subject C, Urine Results","[3]; Day 5 sample, Experiment #2, subject C skipped Loperamide on day 2",0 ng/mL
same,"Subject B, Urine Results","[3]; Day 6 sample, Experiment #2, subject B skipped diphenhydramine on day 5",13.8 ng/mL
same,"Subject C, Urine Results","[3]; Day 6 sample, Experiment #2, subject C skipped Loperamide on day 2",0 ng/mL
same,"Subject B, Urine Results","[3]; Day 7 sample, Experiment #2, subject B skipped diphenhydramine on day 5",12.8 ng/mL
same,"Subject C, Urine Results","[3]; Day 7 sample, Experiment #2, subject C skipped Loperamide on day 2",0 ng/mL
same,course of urine levels relative to dosing,"[3]; Experiment 2, days 1-8","zero before dosing, peaked the day after dosing and slowly decreased over time"
same,concentration at 1 day,"[3]; human, in vivo",0 µg/mL
same,concentration at 2 day,"[3]; human, in vivo",0 µg/mL
same,concentration at 8 day,"[3]; human, in vivo, Subject B, Experiment #2, subject B skipped diphenhydramine on day 5",2.92 ng/mL
same,concentration at 8 day,"[3]; human, in vivo, Subject C, Experiment #2, subject C skipped Loperamide on day 2",0 ng/mL
